The results in this text go back to US9890156B2, “Bicyclic heterocycles as FGFR4 inhibitors” (Incyte Corporation, priority 2015, dated 2018).

Assay [1] concerns the target FGFR3 (Homo sapiens (Human), UniProt P22607). Nature of the assay: FGFR Enzymatic Assay (FRET, peptide phosphorylation), FGFR3. It counts as biochemical. Particulars: pre-incubated for 4 hours; ATP 140 μM.
For assay [2], the target named is FGFR1 (Homo sapiens (Human), UniProt P11362). The assay is described as follows: FGFR Enzymatic Assay (FRET, peptide phosphorylation), FGFR1. The following applies: read-out: FGFR1 IC50; pre-incubated for 4 hours; ATP 210 uM.
The target of assay [3] is FGFR2 (Homo sapiens (Human), UniProt P21802). Nature of the assay: FGFR Enzymatic Assay (FRET, peptide phosphorylation), FGFR2. Particulars: read-out: FGFR2 IC50; pre-incubated for 4 hours; ATP 100 uM.
For assay [4], the target named is FGFR4 (Homo sapiens (Human), UniProt P22455). The assay is described as follows: FGFR Enzymatic Assay (FRET, peptide phosphorylation), FGFR4.
[5] abbreviates: read-out: FGFR4 IC50, pre-incubated for 4 hours, ATP 600 uM.

Read-outs that look alike come from different tables or passages of the source.

For orientation: IC50 means the concentration at which inhibition is half-maximal.

FGFR1, sequence (P11362 22-822): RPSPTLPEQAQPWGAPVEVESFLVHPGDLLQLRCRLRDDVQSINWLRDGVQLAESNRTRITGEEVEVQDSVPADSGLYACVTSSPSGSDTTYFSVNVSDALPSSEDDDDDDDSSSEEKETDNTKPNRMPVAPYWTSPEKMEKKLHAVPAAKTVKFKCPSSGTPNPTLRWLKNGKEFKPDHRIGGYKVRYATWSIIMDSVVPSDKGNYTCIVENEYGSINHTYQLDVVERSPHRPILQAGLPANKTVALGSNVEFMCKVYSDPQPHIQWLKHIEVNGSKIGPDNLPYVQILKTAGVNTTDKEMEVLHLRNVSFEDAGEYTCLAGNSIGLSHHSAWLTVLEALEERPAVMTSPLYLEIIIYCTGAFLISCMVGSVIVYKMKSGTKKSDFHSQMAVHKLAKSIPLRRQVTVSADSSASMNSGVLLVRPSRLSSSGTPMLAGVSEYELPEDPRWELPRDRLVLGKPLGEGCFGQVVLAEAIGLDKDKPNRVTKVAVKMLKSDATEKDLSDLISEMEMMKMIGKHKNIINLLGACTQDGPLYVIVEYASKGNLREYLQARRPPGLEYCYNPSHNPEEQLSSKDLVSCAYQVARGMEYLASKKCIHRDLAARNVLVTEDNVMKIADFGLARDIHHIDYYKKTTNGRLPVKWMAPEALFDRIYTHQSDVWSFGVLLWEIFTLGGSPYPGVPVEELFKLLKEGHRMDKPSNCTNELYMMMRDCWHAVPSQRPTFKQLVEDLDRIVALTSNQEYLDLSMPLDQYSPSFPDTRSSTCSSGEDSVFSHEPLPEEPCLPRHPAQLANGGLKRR
FGFR4, sequence (P22455 22-802): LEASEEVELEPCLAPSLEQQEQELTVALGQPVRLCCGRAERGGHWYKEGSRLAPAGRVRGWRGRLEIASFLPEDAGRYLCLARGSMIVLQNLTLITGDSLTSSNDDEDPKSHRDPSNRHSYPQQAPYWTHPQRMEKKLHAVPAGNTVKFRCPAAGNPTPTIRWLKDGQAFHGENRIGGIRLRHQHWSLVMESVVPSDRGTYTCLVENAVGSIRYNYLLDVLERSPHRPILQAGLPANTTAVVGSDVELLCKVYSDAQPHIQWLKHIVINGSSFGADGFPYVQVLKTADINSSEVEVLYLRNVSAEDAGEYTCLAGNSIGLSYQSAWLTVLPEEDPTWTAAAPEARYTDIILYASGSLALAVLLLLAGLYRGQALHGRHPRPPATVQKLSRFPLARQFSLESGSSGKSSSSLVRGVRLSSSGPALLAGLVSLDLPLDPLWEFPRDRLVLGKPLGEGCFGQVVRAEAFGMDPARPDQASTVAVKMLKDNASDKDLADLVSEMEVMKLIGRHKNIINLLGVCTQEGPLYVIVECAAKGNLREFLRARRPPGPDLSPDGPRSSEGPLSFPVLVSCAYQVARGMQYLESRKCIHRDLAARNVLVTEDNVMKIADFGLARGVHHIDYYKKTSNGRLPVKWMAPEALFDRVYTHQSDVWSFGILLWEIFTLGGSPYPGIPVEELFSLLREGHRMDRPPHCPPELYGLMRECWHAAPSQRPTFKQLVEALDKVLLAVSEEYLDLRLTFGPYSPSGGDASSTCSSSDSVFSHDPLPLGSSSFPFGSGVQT
FGFR2, sequence (P21802 22-821): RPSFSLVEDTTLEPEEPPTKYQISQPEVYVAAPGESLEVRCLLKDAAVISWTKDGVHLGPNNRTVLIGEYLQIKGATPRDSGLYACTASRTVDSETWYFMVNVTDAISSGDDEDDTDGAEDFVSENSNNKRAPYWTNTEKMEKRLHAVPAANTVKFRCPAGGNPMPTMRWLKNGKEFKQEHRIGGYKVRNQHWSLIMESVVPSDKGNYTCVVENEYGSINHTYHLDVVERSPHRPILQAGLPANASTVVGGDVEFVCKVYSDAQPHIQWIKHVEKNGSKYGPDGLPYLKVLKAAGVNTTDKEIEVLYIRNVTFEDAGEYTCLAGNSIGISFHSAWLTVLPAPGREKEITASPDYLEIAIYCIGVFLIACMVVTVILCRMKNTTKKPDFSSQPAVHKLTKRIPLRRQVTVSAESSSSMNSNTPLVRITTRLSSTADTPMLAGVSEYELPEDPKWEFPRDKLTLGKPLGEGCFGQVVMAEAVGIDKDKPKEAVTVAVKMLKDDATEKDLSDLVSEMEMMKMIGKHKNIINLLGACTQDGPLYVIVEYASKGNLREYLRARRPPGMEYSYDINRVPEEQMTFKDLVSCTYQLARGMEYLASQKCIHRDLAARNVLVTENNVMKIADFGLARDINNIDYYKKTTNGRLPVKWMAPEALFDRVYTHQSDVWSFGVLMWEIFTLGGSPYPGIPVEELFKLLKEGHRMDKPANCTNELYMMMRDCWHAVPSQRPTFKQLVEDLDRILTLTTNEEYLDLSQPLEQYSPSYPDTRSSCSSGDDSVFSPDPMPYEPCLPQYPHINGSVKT
FGFR3, sequence (P22607 23-806): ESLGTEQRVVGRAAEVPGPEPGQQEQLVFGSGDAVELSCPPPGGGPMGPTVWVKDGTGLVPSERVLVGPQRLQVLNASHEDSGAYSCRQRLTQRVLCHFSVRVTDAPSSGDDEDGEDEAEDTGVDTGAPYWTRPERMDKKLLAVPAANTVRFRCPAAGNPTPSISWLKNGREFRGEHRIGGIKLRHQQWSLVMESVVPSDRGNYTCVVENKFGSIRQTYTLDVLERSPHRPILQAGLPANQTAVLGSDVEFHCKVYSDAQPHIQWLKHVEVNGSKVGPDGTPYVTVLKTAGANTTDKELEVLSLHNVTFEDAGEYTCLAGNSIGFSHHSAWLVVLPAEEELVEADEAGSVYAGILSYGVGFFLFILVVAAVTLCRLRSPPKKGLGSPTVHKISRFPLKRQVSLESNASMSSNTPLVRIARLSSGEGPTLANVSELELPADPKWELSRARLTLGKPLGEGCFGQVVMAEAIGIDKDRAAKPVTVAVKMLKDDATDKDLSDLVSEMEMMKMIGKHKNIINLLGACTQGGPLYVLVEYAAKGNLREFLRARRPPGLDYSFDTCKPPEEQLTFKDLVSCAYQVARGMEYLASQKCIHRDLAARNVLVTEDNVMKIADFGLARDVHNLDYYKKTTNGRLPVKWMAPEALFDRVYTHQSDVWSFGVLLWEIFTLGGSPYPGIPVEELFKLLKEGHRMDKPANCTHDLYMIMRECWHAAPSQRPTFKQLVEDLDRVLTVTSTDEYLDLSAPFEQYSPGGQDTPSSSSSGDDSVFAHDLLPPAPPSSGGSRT

As for `C=CC(=O)NCc1cc2c(cn1)CN(c1c(F)c(OC)cc(OC)c1F)C(=O)N2CC1CCN(C(=O)NC(C)C)CC1` [Example 34, 4-((7-(acrylamidomethyl)-3-(2,6-difluoro-3,5-dimethoxyphenyl)-2-oxo-3,4-dihydropyrido[4,3-d]pyrimidin-1(2H)-yl)methyl)-N-isopropylpiperidine-1-carboxamide], the IC50 in assay [1] is above 200 nM; in assay [2], above 200 nM; in assay [3] it was above 200 nM; in assay [4] (setting [5]), below 10 nM.

Turning to `C=CC(=O)NCc1cc2c(cn1)CN(c1c(F)c(OC)cc(OC)c1F)C(=O)C21CCCC1` [Example 5, N-((2′-(2,6-difluoro-3,5-dimethoxyphenyl)-3′-oxo-2′,3′-dihydro-1′H-spiro[cyclopentane-1,4′-[2,7]naphthyridine]-6′-yl)methyl)acrylamide], the IC50 in assay [1] was above 200 nM; in assay [2] it was above 200 nM; in assay [3], above 200 nM; in assay [4] (setting [5]), below 10 nM.

For the compound `C=CC(=O)NCc1cc2c(cn1)CN(c1c(F)c(OC)cc(OC)c1F)C(=O)C2(C)C` [Example 24, N-((7-(2,6-difluoro-3,5-dimethoxyphenyl)-5,5-dimethyl-6-oxo-5,6,7,8-tetrahydro-2,7-naphthyridin-3-yl)methyl)acrylamide], the IC50 in assay [1] was […]; in assay [2], […]; in assay [3], […]; in assay [4] (setting [5]), […].

For `C=CC(=O)NCc1cc2c(cn1)CN(c1c(F)c(OC)cc(OC)c1F)C(=O)N2c1ccn(C)n1` [Example 7, N-((3-(2,6-difluoro-3,5-dimethoxyphenyl)-1-(1-methyl-1H-pyrazol-3-yl)-2-oxo-1,2,3,4-tetrahydropyrido[4,3-d]pyrimidin-7-yl)methyl)acrylamide], the IC50 in assay [1] is above 200 nM; in assay [2], above 200 nM; in assay [3] it was above 200 nM; in assay [4], 10 to 30 nM.

Take `C=CC(=O)NCc1cc2c(cn1)CN(c1c(F)c(OC)cc(OC)c1F)C(=O)N2C(C)C` [Example 15, N-((3-(2,6-difluoro-3,5-dimethoxyphenyl)-1-isopropyl-2-oxo-1,2,3,4-tetrahydropyrido[4,3-d]pyrimidin-7-yl)methyl)acrylamide]: the IC50 in assay [1] was above 200 nM; in assay [2], above 200 nM; in assay [3] it was above 200 nM; in assay [4] (setting [5]) it was below 10 nM.

For the compound `C=CC(=O)NCc1cc2c(cn1)CN(c1c(F)c(OC)cc(OC)c1F)C(=O)N2CC(F)(F)F` [Example 21, N-((3-(2,6-difluoro-3,5-dimethoxyphenyl)-2-oxo-1-(2,2,2-trifluoroethyl)-1,2,3,4-tetrahydropyrido[4,3-d]pyrimidin-7-yl)methyl)acrylamide], the IC50 in assay [1] is above 200 nM; in assay [2] it was above 200 nM; in assay [3], above 200 nM; in assay [4] (setting [5]) it was below 10 nM.

Turning to `C=CC(=O)NCc1cc2c(cn1)CN(c1c(F)c(OC)cc(OC)c1F)C(=O)N2CC1CCN(C)CC1` [Example 32, N-((3-(2,6-difluoro-3,5-dimethoxyphenyl)-1-((1-methylpiperidin-4-yl)methyl)-2-oxo-1,2,3,4-tetrahydropyrido[4,3-d]pyrimidin-7-yl)methyl)acrylamide], the IC50 is […] in assay [1], […] in assay [2], […] in assay [3] and […] in assay [4] (setting [5]).

`C=CC(=O)NCc1cc2c(cn1)CN(c1c(F)c(OC)cc(OC)c1F)C(=O)N2C1CC(F)(F)C1` [Example 9, N-((3-(2,6-difluoro-3,5-dimethoxyphenyl)-1-(3,3-difluorocyclobutyl)-2-oxo-1,2,3,4-tetrahydropyrido[4,3-d]pyrimidin-7-yl)methyl)acrylamide]: the IC50 in assay [1] is above 200 nM; in assay [2], above 200 nM; in assay [3], above 200 nM; in assay [4], 10 to 30 nM.

As to `C=CC(=O)NCc1cc2c(cn1)CN(c1c(F)c(OC)cc(OC)c1F)C(=O)N2c1ccncc1` [Example 26, N-((3-(2,6-difluoro-3,5-dimethoxyphenyl)-2-oxo-1-(pyridin-4-yl)-1,2,3,4-tetrahydropyrido[4,3-d]pyrimidin-7-yl)methyl)acrylamide], the IC50 in assay [1] is above 200 nM; in assay [2] it was above 200 nM; in assay [3], above 200 nM; in assay [4], 10 to 30 nM.

`C=CC(=O)NCc1cc2c(cn1)CN(c1c(F)c(OC)cc(OC)c1F)C(=O)N2CC#N` [Example 20, N-((1-(cyanomethyl)-3-(2,6-difluoro-3,5-dimethoxyphenyl)-2-oxo-1,2,3,4-tetrahydropyrido[4,3-d]pyrimidin-7-yl)methyl)acrylamide]: the IC50 in assay [1] was above 200 nM; in assay [2], above 200 nM; in assay [3] it was above 200 nM; in assay [4] (setting [5]) it was below 10 nM.

As to `C=CC(=O)NCc1cc2c(cn1)CN(c1c(F)c(OC)cc(OC)c1F)C(=O)N2C1CC1` [Example 10, N-((1-cyclopropyl-3-(2,6-difluoro-3,5-dimethoxyphenyl)-2-oxo-1,2,3,4-tetrahydropyrido[4,3-d]pyrimidin-7-yl)methyl)acrylamide], the IC50 is above 200 nM in assay [1], above 200 nM in assay [2], above 200 nM in assay [3] and 10 to 30 nM in assay [4].

As for `C=CC(=O)NCc1cc2c(cn1)CN(c1c(Cl)c(OC)cc(OC)c1Cl)C(=O)N2CC` [Example 36, N-((3-(2,6-dichloro-3,5-dimethoxyphenyl)-1-ethyl-2-oxo-1,2,3,4-tetrahydropyrido[4,3-d]pyrimidin-7-yl)methyl)acrylamide], the IC50 in assay [1] was above 200 nM; in assay [2] it was above 200 nM; in assay [3] it was above 200 nM; in assay [4] (setting [5]), below 10 nM.

Consider `C=CC(=O)NCc1cc2c(cn1)CN(c1c(F)c(OC)cc(OC)c1F)C(=O)N2C[C@H]1CCOC1` [Example 19, (R)—N-((3-(2,6-difluoro-3,5-dimethoxyphenyl)-2-oxo-1-((tetrahydrofuran-3-yl)methyl)-1,2,3,4-tetrahydropyrido[4,3-d]pyrimidin-7-yl)methyl)acrylamide], for which the IC50 in assay [1] is above 200 nM; in assay [2], above 200 nM; in assay [3] it was above 200 nM; in assay [4] (setting [5]), below 10 nM.

With `C=CC(=O)NCc1cc2c(cn1)CN(c1c(F)c(OC)cc(OC)c1F)C(=O)N2CCOC` [Example 11, N-((3-(2,6-difluoro-3,5-dimethoxyphenyl)-1-(2-methoxyethyl)-2-oxo-1,2,3,4-tetrahydropyrido[4,3-d]pyrimidin-7-yl)methyl)acrylamide], the IC50 in assay [1] is above 200 nM; in assay [2], above 200 nM; in assay [3], above 200 nM; in assay [4] (setting [5]) it was below 10 nM.

In the case of `C=CC(=O)NCc1cc2c(cn1)CN(c1c(F)c(OC)cc(OC)c1F)C(=O)N2CC` [Example 2, N-((3-(2,6-difluoro-3,5-dimethoxyphenyl)-1-ethyl-2-oxo-1,2,3,4-tetrahydropyrido[4,3-d]pyrimidin-7-yl)methyl)acrylamide], the concentration for half-maximal inhibition (IC50) in assay [1] was above 200 nM; in assay [2], above 200 nM; in assay [3], above 200 nM; in assay [4] (setting [5]) it was below 10 nM.

In the case of `C=CC(=O)NCc1cc2c(cn1)CN(c1c(F)c(OC)cc(OC)c1F)C(=O)N2C1CCC1` [Example 25, N-((1-cyclobutyl-3-(2,6-difluoro-3,5-dimethoxyphenyl)-2-oxo-1,2,3,4-tetrahydropyrido[4,3-d]pyrimidin-7-yl)methyl)acrylamide], the IC50 was above 200 nM in assay [1], above 200 nM in assay [2], above 200 nM in assay [3] and 10 to 30 nM in assay [4].
